Experimental data reported in patent US20170190671A1, “BIS(ARYL)CATECHOL DERIVATIVES AS HERBICIDES” (E I DU PONT DE NEMOURS AND COMPANY, priority 2014, published 2017).

What was measured:
Format in all cases: in vivo
[1] = system: barnyardgrass (Echinochloa crus-galli); assay: Test C flooded paddy; details: Flood, scale 0 to 100
Text: (§1) At time of treatment, test pots were flooded to 3 cm above the soil surface, treated by application of test compounds directly to the paddy water, and then maintained at that water depth for the duration of the test. Treated plants and controls were maintained in a greenhouse for 13 to 15 days, after which time all species were compared to controls and visually evaluated. […] A dash (-) response means no test result.

[2] = system: sedge, umbrella (small-flower umbrella sedge, Cyperus difformis); assay: Test C flooded paddy; details: Flood, scale 0 to 100
Text: as §1

[3] = system: rice (Oryza sativa); assay: Test C flooded paddy; details: Flood, scale 0 to 100
Text: as §1

[4] = system: ducksalad (Heteranthera limosa); assay: Test C flooded paddy; details: Flood, scale 0 to 100
Text: as §1

[5] = system: pigweed (Amaranthus retroflexus); assay: Test A postemergence; details: Amaranthus retroflexus, post-emergence, 240 h, 0 to 100 scale, read-out: Plant response rating, Pigweed
Procedure, shortened: (§2)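 Pre- and postemergence greenhouse screen. Soil: loam + sand. Spray carrier: solvent mixture, non-phytotoxic, with surfactant. Post timing at 1–2 leaves, height 2–10 cm. Readout: visual injury on a 0–100 scale roughly 10 days after application, untreated plants as reference.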

[6] = system: velvetleaf (Abutilon theophrasti); assay: Test A postemergence; details: 0 to 100 scale
Procedure, shortened: as §2

[7] = system: barnyardgrass (Echinochloa crus-galli); assay: Test A postemergence; details: Echinochloa crus-galli, post-emergence, 240 h, 0 to 100 scale, read-out: Plant response rating, Barnyardgrass
Procedure, shortened: as §2

[8] = system: giant foxtail (Setaria faberii); assay: Test A postemergence; details: Setaria faberi, post-emergence, 240 h, 0 to 100 scale, read-out: Plant response rating, Foxtail, Giant
Procedure, shortened: as §2

[9] = system: morningglory (Ipomoea spp.); assay: Test A postemergence; details: 0 to 100 scale
Procedure, shortened: as §2

[10] = system: large (Lg) crabgrass (Digitaria sanguinalis); assay: Test A postemergence; details: 0 to 100 scale
Procedure, shortened: as §2

[11] = system: wheat (Triticum aestivum); assay: Test A postemergence; details: Triticum aestivum, post-emergence, 240 h, 0 to 100 scale, read-out: Plant response rating, Wheat
Procedure, shortened: as §2

[12] = system: corn (Zea mays); assay: Test A postemergence; details: Zea mays, post-emergence, 240 h, 0 to 100 scale
Procedure, shortened: as §2

[13] = system: pigweed (Amaranthus retroflexus); assay: Test A preemergence; details: Amaranthus retroflexus, pre-emergence, 240 h, 0 to 100 scale, read-out: Plant response rating, Pigweed
Procedure, shortened: as §2

[14] = system: velvetleaf (Abutilon theophrasti); assay: Test A preemergence; details: 0 to 100 scale
Procedure, shortened: as §2

[15] = system: barnyardgrass (Echinochloa crus-galli); assay: Test A preemergence; details: Echinochloa crus-galli, pre-emergence, 240 h, 0 to 100 scale, read-out: Plant response rating, Barnyardgrass
Procedure, shortened: as §2

[16] = system: giant foxtail (Setaria faberii); assay: Test A preemergence; details: Setaria faberi, pre-emergence, 240 h, 0 to 100 scale, read-out: Plant response rating, Foxtail, Giant
Procedure, shortened: as §2

[17] = system: morningglory (Ipomoea spp.); assay: Test A preemergence; details: 0 to 100 scale
Procedure, shortened: as §2

[18] = system: large (Lg) crabgrass (Digitaria sanguinalis); assay: Test A preemergence; details: 0 to 100 scale
Procedure, shortened: as §2

[19] = system: wheat (Triticum aestivum); assay: Test A preemergence; details: 0 to 100 scale
Procedure, shortened: as §2

[20] = system: corn (Zea mays); assay: Test A preemergence; details: 0 to 100 scale
Procedure, shortened: as §2

[21] = system: barnyardgrass (Echinochloa crus-galli); assay: Test B flooded paddy; details: Echinochloa crus-galli, 336 h; 250 g ai/ha, Flood, 13 to 15 days, scale 0 (no effect) to 100 (complete control); read-out: Plant response rating, Barnyardgrass
Procedure, shortened: (§3)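 In-water treatment: compound dosed into 3 cm flood over soil, water level unchanged throughout. Controls run alongside; visual assessment at day 13–15.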

[22] = system: sedge, umbrella (small-flower umbrella sedge, Cyperus difformis); assay: Test B flooded paddy; details: Cyperus difformis, 336 h; 250 g ai/ha, Flood, 13 to 15 days, scale 0 (no effect) to 100 (complete control); read-out: Plant response rating, Sedge, Umbrella
Procedure, shortened: as §3

[23] = system: rice (Oryza sativa); assay: Test B flooded paddy; details: Oryza sativa, 336 h; 250 g ai/ha, Flood, 13 to 15 days, scale 0 (no effect) to 100 (complete control); read-out: Plant response rating, Rice
Procedure, shortened: as §3

[24] = system: ducksalad (Heteranthera limosa); assay: Test B flooded paddy; details: Heteranthera limosa, 336 h; 250 g ai/ha, Flood, 13 to 15 days, scale 0 (no effect) to 100 (complete control); read-out: Plant response rating, Ducksalad
Procedure, shortened: as §3

N#Cc1cccc(Oc2ncc(Br)cn2)c1Oc1ncc(Br)cn1 [Compound 1, 2,3-bis[(5-bromo-2-pyrimidinyl)oxy]benzonitrile]
Plant response rating, Barnyardgrass ([1]; 31 g ai/ha): 0 | Plant response rating, Barnyardgrass ([1]; 62 g ai/ha): 0 | Plant response rating, Barnyardgrass ([1]; 125 g ai/ha): 0 | Plant response rating, Barnyardgrass ([1]; 250 g ai/ha): 0 | Plant response rating, Sedge, Umbrella ([2]; 31 g ai/ha): 0 | Plant response rating, Sedge, Umbrella ([2]; 62 g ai/ha): 30 | Plant response rating, Sedge, Umbrella ([2]; 125 g ai/ha): 65 | Plant response rating, Sedge, Umbrella ([2]; 250 g ai/ha): 80 | Plant response rating, Rice ([3]; 31 g ai/ha): 0 | Plant response rating, Rice ([3]; 62 g ai/ha): 0 | Plant response rating, Rice ([3]; 125 g ai/ha): 0 | Plant response rating, Rice ([3]; 250 g ai/ha): 0 | Plant response rating, Ducksalad ([4]; 31 g ai/ha): 0 | Plant response rating, Ducksalad ([4]; 62 g ai/ha): 0 | Plant response rating, Ducksalad ([4]; 125 g ai/ha): 50 | Plant response rating, Ducksalad ([4]; 250 g ai/ha): 80 | pest or weed control at 125 g/ha ([5]; 125 g ai/ha): 100% | pest or weed control at 500 g/ha ([5]; 500 g ai/ha): 100% | Plant response rating, Velvetleaf ([6]; 125 g ai/ha): 70 | Plant response rating, Velvetleaf ([6]; 500 g ai/ha): 90 | pest or weed control at 125 g/ha ([7]; 125 g ai/ha): 70% | pest or weed control at 500 g/ha ([7]; 500 g ai/ha): 90% | pest or weed control at 125 g/ha ([8]; 125 g ai/ha): 70% | pest or weed control at 500 g/ha ([8]; 500 g ai/ha): 90% | Plant response rating, Morningglory ([9]; 125 g ai/ha): 30 | Plant response rating, Morningglory ([9]; 500 g ai/ha): 30 | Plant response rating, Crabgrass, Large ([10]; 125 g ai/ha): 60 | Plant response rating, Crabgrass, Large ([10]; 500 g ai/ha): 100 | plant injury at 125 g/ha ([11]; 125 g ai/ha): 30% | plant injury at 500 g/ha ([11]; 500 g ai/ha): 60% | Corn plant response rating (crop injury, 0 = no effect, 100 = complete kill) at 125 g/ha ([12]; 125 g ai/ha): 30% | Corn plant response rating (crop injury, 0 = no effect, 100 = complete kill) at 500 g/ha ([12]; 500 g ai/ha): 80% | pest or weed control at 125 g/ha ([13]; 125 g ai/ha): 100% | pest or weed control at 500 g/ha ([13]; 500 g ai/ha): 100% | Plant response rating, Velvetleaf ([14]; 125 g ai/ha): 70 | Plant response rating, Velvetleaf ([14]; 500 g ai/ha): 100 | pest or weed control at 125 g/ha ([15]; 125 g ai/ha): 70% | pest or weed control at 500 g/ha ([15]; 500 g ai/ha): 90% | pest or weed control at 125 g/ha ([16]; 125 g ai/ha): 90% | pest or weed control at 500 g/ha ([16]; 500 g ai/ha): 100% | Plant response rating, Morningglory ([17]; 125 g ai/ha): 30 | Plant response rating, Morningglory ([17]; 500 g ai/ha): 100 | Plant response rating, Crabgrass, Large ([18]; 125 g ai/ha): 100 | Plant response rating, Crabgrass, Large ([18]; 500 g ai/ha): 100 | Plant response rating, Wheat ([19]; 125 g ai/ha): 20 | Plant response rating, Wheat ([19]; 500 g ai/ha): 60 | Plant response rating, Corn ([20]; 125 g ai/ha): 20 | Plant response rating, Corn ([20]; 500 g ai/ha): 60 | pest or weed control at 250 g/ha [21]: 40% | pest or weed control at 250 g/ha [22]: 95% | plant injury at 250 g/ha [23]: 0% | pest or weed control at 250 g/ha [24]: 90%
